Test systems include KM12 colon; RXF 393 renal; CCRF-CEM leukemia; MALME-3M melanoma; SK-OV-3 ovarian; HOP-92 NSCLC; SF-268 CNS; HCC-2998 colon; SR leukemia; NCI-H226 lung.
Holding throughout (assay): NCI-60 cell line screen, 48 h

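96-well plates; 48 h exposure; 5 concentrations. Endpoints by linear interpolation between flanking doses. Not reached: highest tested concentration assigned. GI50: concentration for 50% inhibition of growth. TGI: total growth inhibition.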

For `CCN(CC)CCNc1ccc2nnn3c4ccccc4c(=O)c1c23`, the TGI with KM12 colon came out at 17.3 µM; in the assay with RXF 393 renal, 18.5 µM; with CCRF-CEM leukemia, 18.7 µM; in the assay on MALME-3M melanoma it was 16.1 µM; in the assay on SK-OV-3 ovarian, 62.5 µM; in the assay with HOP-92 NSCLC, 11.7 µM. Besides, the TGI is 19.2 µM with SF-268 CNS, 20.9 µM in the assay on HCC-2998 colon, 5.44 µM with SR leukemia and 8.09 µM in the assay on NCI-H226 lung.

As for `Oc1cc(CN2COc3ccccc32)c(O)cc1CNC1CCCCC1`, the TGI in the assay on KM12 colon was more than 100 µM; with RXF 393 renal, 71.8 µM; in the assay on CCRF-CEM leukemia it was more than 100 µM; in the assay with MALME-3M melanoma, 38.2 µM; in the assay on SK-OV-3 ovarian, more than 100 µM; in the assay with HOP-92 NSCLC it was 75.4 µM. The TGI in the assay on SF-268 CNS worked out at 33.6 µM; in the assay with SR leukemia it was 49.7 µM.

With `NC(N)=NC(N)=Nc1ccccc1` (tested in a mixture with another compound), the TGI in the assay with KM12 colon, with RXF 393 renal, in the assay on CCRF-CEM leukemia, in the assay with MALME-3M melanoma, in the assay with SK-OV-3 ovarian and in the assay with SF-268 CNS was more than 100 µM in each case. Further, the TGI in the assay on HCC-2998 colon and in the assay on NCI-H226 lung was more than 100 µM throughout.

Regarding `Cc1ccc(C2CC(c3cccc(Nc4ccncc4)c3)=NN2c2ccccc2)cc1` (stereo unspecified), the GI50 is 1.75 µM in the assay on KM12 colon; 1.61 µM in the assay on RXF 393 renal; 3.95 µM in the assay with CCRF-CEM leukemia; 2.34 µM with SK-OV-3 ovarian; 1.6 µM with HCC-2998 colon; 2.07 µM in the assay on SR leukemia. Further, the TGI in the assay on KM12 colon is 3.25 µM; with RXF 393 renal, 3.02 µM; in the assay with CCRF-CEM leukemia, 77.9 µM; with SK-OV-3 ovarian, 5.88 µM; with HCC-2998 colon it was 2.96 µM; with SR leukemia, 5.73 µM.

On to `C=CCc1cccc(/C=N\N=C(/N)NO)c1O`, for which the TGI in the assay on KM12 colon was more than 80.9 µM; in the assay on RXF 393 renal it was 19.2 µM; in the assay with CCRF-CEM leukemia, more than 27 µM; with MALME-3M melanoma it was 70.9 µM; in the assay with SK-OV-3 ovarian, 32.5 µM; in the assay on HOP-92 NSCLC, more than 67.9 µM. For the same compound, the figures for the TGI in the assay with SF-268 CNS, in the assay with HCC-2998 colon and in the assay on NCI-H226 lung were more than 100 µM, 33.1 µM and 11.5 µM, respectively.

Turning to `Nc1ccccc1N=Nc1c(S(=O)(=O)O)cc2cc(S(=O)(=O)O)cc(O)c2c1O`, the TGI in the assay on KM12 colon, with RXF 393 renal, in the assay on CCRF-CEM leukemia, in the assay on MALME-3M melanoma, with SK-OV-3 ovarian and with HOP-92 NSCLC was more than 100 µM each time. Besides, the TGI with SF-268 CNS, in the assay with HCC-2998 colon, with SR leukemia and in the assay on NCI-H226 lung was more than 100 µM in each case.

Consider `CC1=CC(C)(C)Nc2ccc(CSc3ccccc3)cc21`, for which the TGI was 63.5 µM in the assay with KM12 colon; 38.3 µM in the assay with RXF 393 renal; 47.5 µM in the assay on MALME-3M melanoma; 90.1 µM in the assay on SK-OV-3 ovarian; more than 100 µM with HOP-92 NSCLC; more than 100 µM with SF-268 CNS. Moreover, the TGI in the assay on HCC-2998 colon is 45.1 µM; in the assay on NCI-H226 lung, more than 100 µM.

Regarding `CC(C)CN(CC#N)CC(C)C`, the TGI with KM12 colon, with RXF 393 renal, with MALME-3M melanoma, in the assay on SK-OV-3 ovarian, in the assay on HOP-92 NSCLC and in the assay with SF-268 CNS was more than 100 µM throughout. Also, the TGI in the assay with HCC-2998 colon and in the assay on NCI-H226 lung was more than 100 µM in each case.

With `CC(=O)N/C(=C\c1ccc(/C=C(\NC(C)=O)C2=NC3C(=O)c4ccccc4C(=O)C3N2)cc1)C1=NC2C(=O)c3ccccc3C(=O)C2N1` (stereo unspecified), the TGI was more than 100 µM in the assay with KM12 colon; more than 100 µM in the assay with RXF 393 renal; 86.4 µM with CCRF-CEM leukemia; more than 100 µM in the assay on SK-OV-3 ovarian; more than 100 µM in the assay on HOP-92 NSCLC; more than 100 µM with SF-268 CNS. The compound further showed a TGI with NCI-H226 lung of more than 100 µM.

Take `Cc1c2c(ccc3ccccc32)c[n+]2ccccc12`: the TGI in the assay with KM12 colon came to 11.8 µM; in the assay with CCRF-CEM leukemia, 36.5 µM; in the assay on MALME-3M melanoma, 6.98 µM; in the assay with HOP-92 NSCLC, 90.8 µM; in the assay with SF-268 CNS, 11.3 µM; in the assay with HCC-2998 colon, 26 µM. Further, the figures for the TGI in the assay on SR leukemia and in the assay on NCI-H226 lung were 23.3 µM and 35.1 µM, respectively.

With `C[N+](C)([O-])Cc1cc(-c2ccccc2)ccc1O`, the TGI with KM12 colon, in the assay with RXF 393 renal, in the assay on MALME-3M melanoma, with HOP-92 NSCLC, with SF-268 CNS and in the assay on HCC-2998 colon was more than 100 µM in each case. The TGI in the assay with SR leukemia and with NCI-H226 lung was more than 100 µM each time.

`O=c1nc2sc3ccc4ccccc4c3n2[nH]c1=O`: the TGI in the assay with KM12 colon was more than 100 µM; with RXF 393 renal, 38.1 µM; with CCRF-CEM leukemia, more than 100 µM; in the assay with SK-OV-3 ovarian, more than 100 µM; with SF-268 CNS, more than 100 µM; in the assay with HCC-2998 colon it was more than 100 µM. Besides, the TGI in the assay with NCI-H226 lung is more than 100 µM.

On to `O=C(O)Cn1c2c(c3c(O)cccc31)C(=O)c1ccccc1-2`, for which the GI50 in the assay with KM12 colon, with RXF 393 renal, with CCRF-CEM leukemia, in the assay with MALME-3M melanoma, in the assay on SK-OV-3 ovarian and in the assay on HOP-92 NSCLC was more than 100 µM throughout. Moreover, the GI50 with SF-268 CNS, with HCC-2998 colon and in the assay with NCI-H226 lung was more than 100 µM in each case. The TGI with KM12 colon, with RXF 393 renal, with CCRF-CEM leukemia, in the assay on MALME-3M melanoma, with SK-OV-3 ovarian and in the assay on HOP-92 NSCLC was more than 100 µM in each case. Further, the TGI in the assay on SF-268 CNS, with HCC-2998 colon and in the assay with NCI-H226 lung was more than 100 µM throughout.

Consider `C[C@]12CC[C@@H]3c4ccc(OCCN5CCCC5)cc4CC[C@H]3[C@@H]1CCC2=O`, for which the TGI was more than 100 µM in the assay with RXF 393 renal; more than 100 µM in the assay with CCRF-CEM leukemia; more than 100 µM with SK-OV-3 ovarian; more than 100 µM with HOP-92 NSCLC; 25.1 µM in the assay with HCC-2998 colon; more than 100 µM in the assay on SR leukemia. The TGI in the assay with NCI-H226 lung came out at 54 µM.

Regarding `CCCCN=C1OCc2[nH][nH]c(=O)c21`, the TGI with KM12 colon, in the assay on RXF 393 renal, in the assay with CCRF-CEM leukemia, in the assay with SK-OV-3 ovarian, in the assay on HOP-92 NSCLC and in the assay on SF-268 CNS was more than 100 µM in each case. The TGI in the assay with HCC-2998 colon, in the assay with SR leukemia and in the assay on NCI-H226 lung was more than 100 µM throughout.

On to `[O-][n+]1c(-c2ccccc2)c2nc3ccccc3nc2c2ccccc21`, for which the TGI in the assay with KM12 colon, with RXF 393 renal, in the assay with CCRF-CEM leukemia, in the assay on MALME-3M melanoma, in the assay with SK-OV-3 ovarian and with HOP-92 NSCLC was more than 100 µM each time. Further, the TGI with SF-268 CNS, in the assay on HCC-2998 colon and in the assay on NCI-H226 lung was more than 100 µM throughout.

Take `O=C(O)c1nccnc1C(=O)O`: the TGI in the assay with KM12 colon, with RXF 393 renal, with CCRF-CEM leukemia, in the assay on MALME-3M melanoma, in the assay with SK-OV-3 ovarian and in the assay on HOP-92 NSCLC was more than 100 µM in each case. In addition, the TGI in the assay with SF-268 CNS, in the assay with HCC-2998 colon, in the assay on SR leukemia and in the assay on NCI-H226 lung was more than 100 µM throughout.

As for `CCCCCCCCCCCCCCCC(=O)OC1C(O)C(CO)OC(OC)C1NC(=O)N(CCCl)N=O` (stereo unspecified), the TGI in the assay with KM12 colon worked out at 35.1 µM; in the assay with SF-268 CNS, 15.5 µM; in the assay on SR leukemia, 23.7 µM; in the assay with NCI-H226 lung, 33.7 µM.

With `CCCOC1OC(CS(=O)(=O)O)C(O)C(O)C1O` (stereo unspecified), the TGI in the assay on KM12 colon, in the assay with RXF 393 renal, in the assay with CCRF-CEM leukemia, in the assay on MALME-3M melanoma, with SK-OV-3 ovarian and in the assay with HOP-92 NSCLC was more than 100 µM in each case. For the same compound, the TGI with HCC-2998 colon, in the assay on SR leukemia and with NCI-H226 lung was more than 100 µM throughout.

Take `CN(C)C(=O)C1CCN(Cc2c[nH]c3ccccc23)CC1`: the TGI with KM12 colon, with RXF 393 renal, with MALME-3M melanoma, in the assay on SK-OV-3 ovarian, in the assay with HOP-92 NSCLC and in the assay on SF-268 CNS was more than 100 µM throughout. Moreover, the TGI with SR leukemia and in the assay on NCI-H226 lung was more than 100 µM throughout.

On to `CCOC(=O)NC(Nc1ccc(Cl)cn1)(C(F)(F)F)C(F)(F)F`, for which the TGI in the assay on KM12 colon, in the assay with RXF 393 renal, in the assay with CCRF-CEM leukemia, in the assay on MALME-3M melanoma, with SK-OV-3 ovarian and in the assay with SF-268 CNS was more than 100 µM each time. Further, the TGI in the assay on HCC-2998 colon, in the assay on SR leukemia and in the assay with NCI-H226 lung was more than 100 µM in each case.

Consider `N#CCCN(CCC#N)c1ccc(/C=C2\N=C(c3cc([N+](=O)[O-])ccc3Cl)N(NC(=O)CC(=O)Nc3ccccc3Cl)C2=O)cc1`, for which the TGI in the assay on KM12 colon, in the assay on RXF 393 renal, in the assay on CCRF-CEM leukemia, in the assay with MALME-3M melanoma, in the assay with SK-OV-3 ovarian and with HOP-92 NSCLC was more than 100 µM throughout. Further, the TGI is more than 100 µM with SF-268 CNS, more than 100 µM in the assay with HCC-2998 colon, more than 100 µM in the assay on SR leukemia and 35.6 µM with NCI-H226 lung.

The record behind these values is PubChem BioAssay (NCI).
